Measurements published in PMC9317443 (Viruses, 2022).
Read-outs that look alike come from different tables or passages of the source.

Legend:
[1] = MTT cytotoxicity / cell viability in CHIKV replicon cells; conditions: hamster, BHK-21-GLuc-nsP-CHIKV-99659 cells (CHIKV replicon cells)
CHIKV replicon = assay: CHIKV replicon-based assay (GLuc activity in BHK-21-GLuc-nsP-CHIKV-99659 cells); conditions: for inhibition at 10 µM: read-out: GLuc Inhibition; for EC50: 48 h, read-out: EC50 (concentration required to inhibit 50% of the GLuc activity); for SI (CC50/EC50): replicon-based assay
[2] = cited from earlier work
[3] = test system: replication-transcription complex (RTC); conditions: cited from earlier work
[4] = test system: BHK-21-GLuc-nsP-CHIKV-99659 cells; assay: MTT cytotoxicity / cell viability in CHIKV replicon cells; conditions: CHIKV replicon cells, 48 h, MTT assay; for CC50: read-out: CC50 (50% cytotoxicity)
BHK-21 cells = assay: Cell viability in the viral infection assay; assay type: cell-based
CHIKV-nanoluc = assay: Viral infection assay with CHIKV-nanoluc in BHK-21 cells; assay type: cell-based, Chikungunya virus; conditions: MOI 0.1, 16 h.p.i., read-out: EC50 (CHIKV-nanoluc replication)
[5] = Cell viability in the viral infection assay; assay type: cell-based; conditions: hamster, BHK-21 cells infected with CHIKV-nanoluc
[6] = CHIKV replicon cells, GLuc signal from supernatant

Compound: Clc1ccccc1C(c1ccccc1)(c1ccccc1)n1ccnc1 [Clotrimazole]
- viability at 10 µM [1]: 70.2%
- inhibition at 10 µM (CHIKV replicon; Chikungunya virus): 70.7%

Compound: OC(Cn1cncn1)(Cn1cncn1)c1ccc(F)cc1F [Fluconazole]
- viability at 10 µM [1]: 94.3%
- inhibition at 10 µM (CHIKV replicon; Chikungunya virus): 0%

Compound: Clc1ccc(COC(Cn2ccnc2)c2ccc(Cl)cc2Cl)c(Cl)c1 (stereo not shown) [Miconazole]
- viability at 10 µM [1]: 100%
- inhibition at 10 µM (CHIKV replicon; Chikungunya virus): 27.8%

Compound: CC[C@@H]([C@H](C)O)n1ncn(-c2ccc(N3CCN(c4ccc(OC[C@@H]5CO[C@@](Cn6cncn6)(c6ccc(F)cc6F)C5)cc4)CC3)cc2)c1=O [Posaconazole]
- viability at 10 µM [1]: 100%
- no toxic effects up to concentration [2]: > 100 µM
- inhibition at 10 µM (CHIKV replicon; Chikungunya virus): 11.8%

Compound: Cc1ccc(C(=O)Nc2ccc(S(=O)(=O)O)c3cc(S(=O)(=O)O)cc(S(=O)(=O)O)c23)cc1NC(=O)c1cccc(NC(=O)Nc2cccc(C(=O)Nc3cc(C(=O)Nc4ccc(S(=O)(=O)O)c5cc(S(=O)(=O)O)cc(S(=O)(=O)O)c45)ccc3C)c2)c1 [suramin]
- CC50 at 48 h [1]: > 50 µM
- EC50 (CHIKV replicon; Chikungunya virus): 3.2 ± 0.3 µM
- EC50 [3]: 6.7 µM

Compound: C[C@H](C(N)=O)N1CCCC[C@@H]1c1ccc(OCc2cccc(F)c2)cc1 [MMV676270]
- CC50 (50% cytotoxicity) [4]: moderate toxicities
- CC50 [4]: 52 ± 20 µM
- EC50 (CHIKV replicon; [6]): 5.2 ± 1 µM
- SI (CC50/EC50) (CHIKV replicon): 10
- CC50 (BHK-21 cells): 59.5 µM
- EC50 (CHIKV-nanoluc): 18.4 ± 5 µM

Compound: Clc1ccc(COC(Cn2ccnc2)c2ccc(Cl)cc2Cl)cc1 (stereo not shown) [Econazole]
- viability at 10 µM [1]: 81.8%
- inhibition at 10 µM (CHIKV replicon; Chikungunya virus): 43.8%

Compound: C[C@@H](c1ncncc1F)[C@](O)(Cn1cncn1)c1ccc(F)cc1F [Voriconazole]
- viability at 10 µM [1]: 91.8%
- inhibition at 10 µM (CHIKV replicon; Chikungunya virus): 13.9%

Compound: CC(=O)N1CCN(c2ccc(OCC3COC(Cn4ccnc4)(c4ccc(Cl)cc4Cl)O3)cc2)CC1 (stereo not shown) [Ketoconazole]
- viability at 10 µM [1]: 100%
- inhibition at 10 µM (CHIKV replicon; Chikungunya virus): 0%

Compound: CCC(C)n1ncn(-c2ccc(N3CCN(c4ccc(OCC5COC(Cn6cncn6)(c6ccc(Cl)cc6Cl)O5)cc4)CC3)cc2)c1=O (stereo not shown) [Itraconazole, itraconazole]
- CC50 at 48 h [1]: > 100 µM
- EC50 (CHIKV replicon; Chikungunya virus): 0.32 ± 0.2 µM
- SI (CC50/EC50) (CHIKV replicon): > 312
- CC50 at 16 h [5]: > 100 µM
- EC50 (CHIKV-nanoluc; Chikungunya virus): 0.34 ± 0.02 µM

Compound: C[C@@H](c1nc(-c2ccc(C#N)cc2)cs1)[C@](O)(Cn1cncn1)c1cc(F)ccc1F [Isavuconazole]
- viability at 10 µM [1]: 100%
- inhibition at 10 µM (CHIKV replicon; Chikungunya virus): 28.6%

Compound: C[C@@H](c1nc(-c2ccc(C#N)cc2)cs1)[C@](O)(Cn1cncn1)c1ccc(F)cc1F [Ravuconazole]
- viability at 10 µM [1]: 100%
- inhibition at 10 µM (CHIKV replicon; Chikungunya virus): 25.4%

Compound: O=C(N[C@@H]1CCCc2c1[nH]c1ccc(Cl)cc21)c1ccccn1 [GSK-983]
- CC50 (50% cytotoxicity) [4]: moderate toxicities
- CC50 [4]: 10 ± 0.07 µM
- EC50 (CHIKV replicon; [6]): 0.33 ± 0.2 µM
- SI (CC50/EC50) (CHIKV replicon): 30
- CC50 (BHK-21 cells): > 100 µM
- EC50 (CHIKV-nanoluc): 13.8 ± 3.3 µM

Compound: CC[C@@]1(O)C(=O)OCc2c1cc1n(c2=O)Cc2cc3c([N+](=O)[O-])cccc3nc2-1 [Rubitecan, rubitecan]
- CC50 at 48 h [1]: > 100 µM
- EC50 (CHIKV replicon; Chikungunya virus): 0.14 ± 0.03 µM
- SI (CC50/EC50) (CHIKV replicon): > 714
- CC50 at 16 h [5]: > 100 µM
- EC50 (CHIKV-nanoluc; Chikungunya virus): 3.6 ± 0.8 µM

Compound: Clc1ccc(C(Cn2ccnc2)OCc2ccsc2Cl)c(Cl)c1 (stereo not shown) [Tioconazole]
- viability at 10 µM [1]: 68.4%
- inhibition at 10 µM (CHIKV replicon; Chikungunya virus): 54.8%
